# Assay results as given in ChEMBL document CHEMBL3639213, “2,5-disubstituted piperidine orexin receptor antagonists” (2014).
# Target: T1, Orexin/Hypocretin receptor type 1 (Rattus norvegicus, UniProt P56718)
# T1 sequence (P56718 whole entry): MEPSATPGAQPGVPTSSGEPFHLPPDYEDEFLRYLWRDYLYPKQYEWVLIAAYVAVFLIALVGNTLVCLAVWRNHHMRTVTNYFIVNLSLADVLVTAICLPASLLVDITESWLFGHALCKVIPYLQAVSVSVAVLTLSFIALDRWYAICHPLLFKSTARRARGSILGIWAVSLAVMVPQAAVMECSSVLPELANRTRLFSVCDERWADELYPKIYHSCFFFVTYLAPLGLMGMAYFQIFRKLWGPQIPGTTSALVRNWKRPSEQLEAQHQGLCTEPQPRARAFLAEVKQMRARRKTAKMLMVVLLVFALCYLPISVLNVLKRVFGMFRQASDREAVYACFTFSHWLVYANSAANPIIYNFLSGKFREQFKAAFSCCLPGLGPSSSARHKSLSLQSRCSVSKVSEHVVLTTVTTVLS
# Assay: Radioligand Binding Assay: Compound potency can be assessed by a radioligand binding assay (described in Bergman et. al. Bioorg. Med. Chem. Lett. 2008, 18, 1425-1430) in which the inhibition constant (Ki) is determined in membranes prepared from CHO cells expressing either the orexin-1 (OX1) or orexin-2 (OX2) receptor.
# Format: cell membranes
row,Compound,Ki
1,C[C@@H]1CC[C@@H](Oc2ccnc3c(F)cccc23)CN1C(=O)c1ccccc1-n1nccn1,560 nM
2,Cc1ccc(-n2nccn2)c(C(=O)N2C[C@H](Nc3nccc4ccccc34)CC[C@H]2C)c1,3.25 nM
3,C[C@@H]1CC[C@@H](Oc2cccc3ocnc23)CN1C(=O)c1ccccc1-n1nccn1,1300 nM
